From patent US20130158043A1, “PAK INHIBITORS FOR THE TREATMENT OF CANCER” (AFRAXIS, INC., priority 2011, published 2013)

Legend:
Assay in all cases: In vitro PAK inhibition assay (Z'-LYTE, SelectScreen Kinase Profiling)
Type in all cases: biochemical
PAK1 = PAK1 (Homo sapiens, UniProt Q13153)
Protocol: (§1) Compounds are screened in 1% DMSO (final) in the well. For 10 point titrations, 3-fold serial dilutions are conducted. All Peptide/Kinase Mixtures are diluted to a 2× working concentration in the appropriate Kinase Buffer
The 2×PAK1/Ser/Thr 19 mixture is prepared in 50 mM HEPES pH 7.5, 0.01% BRIJ-35, 10 mM MgCl2, 1 mM EGTA.
(§2) Add the following solutions to a well in a 384-well plate: 2.5 μL of 4× Test Compound OR (100 nL 100× Test Compound plus 2.4 μL kinase buffer) • 5 μL of 2× Peptide/Kinase (PAK) Mixture • 2.5 μL of 4×ATP Solution • 2. Shake the plate for 30-seconds • 3. Incubate the PAK Kinase Reaction at room temperature for 60-minutes • 4. Add 5 μL of Development Reagent Solution to each well • 5. Shake the plate for 30-seconds • 6. Incubate the Development Reaction for 60-minutes • 7. Determine the fluorescence using a fluorescence plate reader • 8. Analyze the fluorescence data
(§3) SelectScreen® Kinase Profiling Service uses XLfit from IDBS.

PAK2 (PAK65) = PAK2 (PAK65) (Homo sapiens, UniProt Q13177)
Protocol: as §1
The 2×PAK2 (PAK65)/Ser/Thr 20 mixture is prepared in 50 mM HEPES pH 7.5, 0.01% BRIJ-35, 10 mM MgCl2, 1 mM EGTA. The final 10 μL Kinase Reaction consists of 0.29-6 ng PAK2 (PAK65) and 2 μM Ser/Thr 20 in 50 mM HEPES pH 7.5, 0.01% BRIJ-35, 10 mM MgCl2, 1 mM EGTA.
as §2, §3

PAK3 = PAK3 (Homo sapiens, UniProt O75914)
Protocol: as §1
The 2×PAK3/Ser/Thr 20 mixture is prepared in 50 mM HEPES pH 7.5, 0.01% BRIJ-35, 10 mM MgCl2, 1 mM EGTA.
as §2, §3

PAK-4 = PAK-4 (Homo sapiens, UniProt O96013); conditions: read-out: PAK4 IC50
Protocol: as §1
The 2X PAK-4/Ser/Thr 20 mixture is prepared in 50 mM HEPES pH 7.5, 0.01% BRIJ-35, 10 mM MgCl2, 1 mM EGTA. The final 10 μL Kinase Reaction consists of 0.1-0.75 ng PAK-4 and 2 μM Ser/Thr 20 in 50 mM HEPES pH 7.5, 0.01% BRIJ-35, 10 mM MgCl2, 1 mM EGTA. After the 1 hour Kinase Reaction incubation, 5 μL of a 1:256 dilution of Development Reagent A is added.
as §2, with “Bar-coded Corning, low volume NBS, black 384-well plate (Corning Cat. #3676) • 1. Add the” for “Add the”
SelectScreen® Kinase Profiling Service uses XLfit from IDBS. The dose response curve is curve fit to model number 205 (sigmoidal dose-response model).

Chain of PAK-4 (O96013 whole entry): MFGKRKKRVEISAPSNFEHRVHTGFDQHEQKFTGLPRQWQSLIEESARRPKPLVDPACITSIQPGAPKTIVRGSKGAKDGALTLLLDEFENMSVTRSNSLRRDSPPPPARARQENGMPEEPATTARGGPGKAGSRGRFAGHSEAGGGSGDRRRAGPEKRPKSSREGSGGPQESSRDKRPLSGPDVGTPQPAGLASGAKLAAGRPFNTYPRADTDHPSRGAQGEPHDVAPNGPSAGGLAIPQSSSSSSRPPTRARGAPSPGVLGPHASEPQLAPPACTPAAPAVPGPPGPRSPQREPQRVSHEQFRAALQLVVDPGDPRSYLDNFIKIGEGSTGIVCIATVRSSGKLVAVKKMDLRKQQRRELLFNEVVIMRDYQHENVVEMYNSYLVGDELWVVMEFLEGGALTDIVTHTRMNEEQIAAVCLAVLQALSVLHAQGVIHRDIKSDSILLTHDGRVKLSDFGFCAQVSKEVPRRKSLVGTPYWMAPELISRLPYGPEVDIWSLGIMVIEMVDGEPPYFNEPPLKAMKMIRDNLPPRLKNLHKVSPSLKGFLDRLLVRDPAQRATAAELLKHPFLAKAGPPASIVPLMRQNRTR
Chain of PAK2 (PAK65) (Q13177 whole entry): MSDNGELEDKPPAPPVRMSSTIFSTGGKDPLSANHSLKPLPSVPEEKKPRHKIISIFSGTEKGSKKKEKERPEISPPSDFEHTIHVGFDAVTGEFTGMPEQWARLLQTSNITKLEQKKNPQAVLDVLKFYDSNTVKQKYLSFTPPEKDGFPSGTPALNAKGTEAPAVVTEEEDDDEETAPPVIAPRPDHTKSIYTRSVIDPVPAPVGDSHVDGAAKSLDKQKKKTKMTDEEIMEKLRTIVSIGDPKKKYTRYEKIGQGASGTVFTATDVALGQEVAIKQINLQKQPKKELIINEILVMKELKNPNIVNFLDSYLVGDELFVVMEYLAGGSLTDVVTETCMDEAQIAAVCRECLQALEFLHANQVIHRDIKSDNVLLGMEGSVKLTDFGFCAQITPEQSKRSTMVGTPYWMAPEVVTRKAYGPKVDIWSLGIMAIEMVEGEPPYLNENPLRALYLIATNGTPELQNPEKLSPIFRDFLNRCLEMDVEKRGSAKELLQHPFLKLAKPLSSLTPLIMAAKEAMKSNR
Chain of PAK3 (O75914 whole entry): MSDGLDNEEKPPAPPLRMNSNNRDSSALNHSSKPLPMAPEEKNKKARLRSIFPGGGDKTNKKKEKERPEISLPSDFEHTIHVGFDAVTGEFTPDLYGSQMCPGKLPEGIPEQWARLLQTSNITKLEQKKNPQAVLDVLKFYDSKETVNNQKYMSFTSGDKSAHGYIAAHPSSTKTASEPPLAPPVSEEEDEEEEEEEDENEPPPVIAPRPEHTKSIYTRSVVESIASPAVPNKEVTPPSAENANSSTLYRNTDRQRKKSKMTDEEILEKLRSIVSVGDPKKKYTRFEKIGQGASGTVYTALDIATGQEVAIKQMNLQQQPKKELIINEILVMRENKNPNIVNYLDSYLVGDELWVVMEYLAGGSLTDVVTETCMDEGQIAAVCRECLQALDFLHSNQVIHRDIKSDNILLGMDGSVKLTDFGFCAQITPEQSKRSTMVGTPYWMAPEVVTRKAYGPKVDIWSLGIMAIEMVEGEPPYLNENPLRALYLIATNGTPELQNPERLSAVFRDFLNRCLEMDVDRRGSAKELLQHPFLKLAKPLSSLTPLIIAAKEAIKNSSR
Chain of PAK1 (Q13153 whole entry): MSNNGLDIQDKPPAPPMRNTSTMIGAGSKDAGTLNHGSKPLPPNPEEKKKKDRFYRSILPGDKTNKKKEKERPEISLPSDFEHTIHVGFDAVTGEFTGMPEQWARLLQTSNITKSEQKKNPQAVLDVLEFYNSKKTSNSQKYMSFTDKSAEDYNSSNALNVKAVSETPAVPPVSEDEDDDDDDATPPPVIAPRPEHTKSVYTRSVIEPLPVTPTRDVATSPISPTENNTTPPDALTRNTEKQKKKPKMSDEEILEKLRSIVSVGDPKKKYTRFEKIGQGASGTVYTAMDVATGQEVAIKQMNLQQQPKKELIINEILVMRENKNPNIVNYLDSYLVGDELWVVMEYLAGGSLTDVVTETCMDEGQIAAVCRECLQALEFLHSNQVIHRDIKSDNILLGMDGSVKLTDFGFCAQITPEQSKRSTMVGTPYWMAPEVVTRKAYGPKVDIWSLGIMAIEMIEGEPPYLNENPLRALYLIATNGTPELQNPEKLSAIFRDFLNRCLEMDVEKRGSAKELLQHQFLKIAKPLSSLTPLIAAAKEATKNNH

| SMILES | IC50 (PAK1) | IC50 (PAK2 (PAK65)) | IC50 (PAK3) | IC50 (PAK-4) |
| --- | --- | --- | --- | --- |
| CN1CCN(c2ccc(Nc3ncc4ccc(=O)n(Cc5occc5C5CC5)c4n3)cc2)CC1 | 500 to 5000 nM | 500 to 5000 nM | 500 to 5000 nM | 500 to 5000 nM |
| CN1CCN(c2ccc(Nc3ncc4ccc(=O)n(Cc5ncsc5C5CC5)c4n3)cc2)CC1 | 50 to 500 nM | 500 to 5000 nM | 500 to 5000 nM | 500 to 5000 nM |
| CCn1c(=O)c(-c2ccc(-c3nnco3)cc2Cl)cc2cnc(Nc3ccc(N4CCN(C)CC4)cc3)nc21 | < 50 nM | < 50 nM | < 50 nM | 500 to 5000 nM |
| CCS(=O)(=O)c1ccccc1Cn1c(=O)ccc2cnc(Nc3ccc(N4CCN(C)CC4)cc3)nc21 | 50 to 500 nM | 50 to 500 nM | 500 to 5000 nM | 500 to 5000 nM |
| CCn1c(=O)c(-c2ccc(S(C)(=O)=O)cc2)cc2cnc(Nc3ccc(N4CCN(C)CC4)cc3)nc21 | > 5000 nM | > 5000 nM | > 5000 nM | ≥ 5000 nM |
| CC#Cc1cc2cnc(Nc3ccc(N4CCN(C)CC4)cc3)nc2n(Cc2c(F)cccc2C2CC2)c1=O | 50 to 500 nM | 50 to 500 nM | 50 to 500 nM | 500 to 5000 nM |
| CN1CCC(c2ccc(Nc3ncc4ccc(=O)n(Cc5c(F)cccc5C5CC5)c4n3)cc2)CC1 | < 50 nM | 50 to 500 nM | 50 to 500 nM | 50 to 500 nM |
| CCn1c(=O)c(-c2cccc(S(C)(=O)=O)c2)cc2cnc(Nc3ccc(N4CCN(C)CC4)cc3)nc21 | 50 to 500 nM | 500 to 5000 nM | 50 to 500 nM | ≥ 5000 nM |
| CCS(=O)(=O)c1ccccc1Cn1c(=O)c(-c2ccccc2Cl)cc2cnc(Nc3ccc(N4CCN(C)CC4)cc3)nc21 | < 50 nM | < 50 nM | < 50 nM | 500 to 5000 nM |
| CC#Cc1cc2cnc(Nc3ccc(N4CCN(C)CC4)cc3)nc2n(Cc2ccccc2C(F)(F)F)c1=O | 50 to 500 nM | 50 to 500 nM | 500 to 5000 nM | 500 to 5000 nM |
| CCn1c(=O)c(-c2ccc(-c3cccnc3F)cc2Cl)cc2cnc(Nc3ccc(N4CCN(C)CC4)cc3)nc21 | < 50 nM | < 50 nM | < 50 nM | 50 to 500 nM |
| CCn1c(=O)c(-c2ccc(-c3cncs3)cc2Cl)cc2cnc(Nc3ccc(N4CCN(C)CC4)cc3)nc21 |  |  |  | ≥ 5000 nM |
| CCn1c(=O)c(-c2ccc(-c3noc(C)n3)cc2Cl)cc2cnc(Nc3ccc(C4CCN(C)CC4)cc3)nc21 | < 50 nM | < 50 nM | < 50 nM | 500 to 5000 nM |
| CCn1c(=O)c(-c2ccc(-c3ccnc(C(N)=O)c3)cc2Cl)cc2cnc(Nc3ccc(C4CCN(C)CC4)cc3)nc21 | 50 to 500 nM | 50 to 500 nM | 50 to 500 nM | ≥ 5000 nM |
| CCn1c(=O)c(-c2ccc(-c3noc(C)n3)cc2Cl)cc2cnc(Nc3ccc(C4CCNCC4)cc3)nc21 | < 50 nM | < 50 nM | 50 to 500 nM | 500 to 5000 nM |
| CCn1c(=O)c(-c2ccc(-c3cnc(C)s3)cc2Cl)cc2cnc(Nc3ccc(C4CCN(C)CC4)cc3)nc21 | < 50 nM | < 50 nM | < 50 nM | 500 to 5000 nM |
| CCN1CCC(c2ccc(Nc3ncc4cc(-c5ccc(-c6cccnc6C)cc5Cl)c(=O)n(CC)c4n3)cc2)CC1 | < 50 nM | < 50 nM | < 50 nM | ≥ 5000 nM |
| CCN1CCC(c2ccc(Nc3ncc4cc(-c5ccc(-c6ccc(C)nc6)cc5Cl)c(=O)n(CC)c4n3)cc2)CC1 | < 50 nM | < 50 nM | < 50 nM | 500 to 5000 nM |
| CCn1c(=O)c(-c2ccc(-c3cccnc3)cc2Cl)cc2cnc(Nc3ccc(CCN(C)C)cc3)nc21 | < 50 nM | < 50 nM | < 50 nM | 500 to 5000 nM |

| SMILES | IC50 (PAK1) | IC50 (PAK2 (PAK65)) | IC50 (PAK3) | IC50 (PAK-4) |
| --- | --- | --- | --- | --- |
| CCn1c(=O)c(-c2ccc(-c3cnc(C)s3)cc2Cl)cc2cnc(Nc3ccc(C4CCNCC4)cc3)nc21 | < 50 nM | < 50 nM | < 50 nM | 500 to 5000 nM |
| CCn1c(=O)c(-c2ccc(-c3cccnc3C)cc2Cl)cc2cnc(Nc3ccc(C4CCNCC4)cc3)nc21 | < 50 nM | < 50 nM | < 50 nM | ≥ 5000 nM |
| CCn1c(=O)c(-c2ccc(-c3ccnc(C)c3)cc2Cl)cc2cnc(Nc3ccc(C4CCNCC4)c(F)c3)nc21 | < 50 nM | < 50 nM | 50 to 500 nM | 500 to 5000 nM |
| CCn1c(=O)c(-c2ccc(-c3cccnc3F)cc2Cl)cc2cnc(Nc3ccc(C4CCNCC4)cc3)nc21 | < 50 nM | < 50 nM | < 50 nM | 50 to 500 nM |
| CCn1c(=O)c(-c2ccc(-c3cccnc3F)cc2Cl)cc2cnc(Nc3ccc(C4CCN(C)CC4)cc3)nc21 | < 50 nM | < 50 nM | < 50 nM | 50 to 500 nM |
| CCn1c(=O)c(-c2ccc(-c3cccnc3F)cc2Cl)cc2cnc(Nc3ccc(C4CCN5CCCC5C4)cc3)nc21 (centres unmarked) | < 50 nM | < 50 nM | < 50 nM | 500 to 5000 nM |
| CCn1c(=O)c(-c2ccc(-c3noc(C)n3)cc2Cl)cc2cnc(Nc3ccc(CCN(C)C)cc3)nc21 | < 50 nM | < 50 nM | < 50 nM | 500 to 5000 nM |
| CCN1CCC(c2ccc(Nc3ncc4cc(-c5ccc(-c6noc(C)n6)cc5Cl)c(=O)n(CC)c4n3)cc2)CC1 | < 50 nM | < 50 nM | < 50 nM | 500 to 5000 nM |
| Cc1nc(-c2ccc(-c3cc4cnc(Nc5ccc(C6CCN(C)CC6)cc5)nc4n(C)c3=O)c(Cl)c2)no1 | < 50 nM | < 50 nM | < 50 nM | ≥ 5000 nM |
| CCn1c(=O)c(-c2ccc(-c3cccnc3C)cc2)cc2cnc(Nc3ccc(C4CCN(C)CC4)cc3)nc21 | 500 to 5000 nM | 500 to 5000 nM | 500 to 5000 nM | ≥ 5000 nM |
| CCn1c(=O)c(-c2ccc(-c3cccnc3C)cc2F)cc2cnc(Nc3ccc(C4CCN(C)CC4)cc3)nc21 | 50 to 500 nM | 50 to 500 nM | 50 to 500 nM | ≥ 5000 nM |
| CCn1c(=O)c(-c2ccc(-c3cnc(C)cn3)cc2Cl)cc2cnc(Nc3ccc(C4CCN(C)CC4)cc3)nc21 | < 50 nM | < 50 nM | < 50 nM | 50 to 500 nM |
| CCn1c(=O)c(-c2ccc(-c3nccnc3C)cc2Cl)cc2cnc(Nc3ccc(C4CCN(C)CC4)cc3)nc21 | < 50 nM | < 50 nM | < 50 nM | 500 to 5000 nM |
| CCn1c(=O)c(-c2ccc(-c3ccnc(C)n3)cc2Cl)cc2cnc(Nc3ccc(C4CCN(C)CC4)cc3)nc21 | < 50 nM | < 50 nM | < 50 nM | 500 to 5000 nM |
| CCn1c(=O)c(-c2ccc(-c3cncc(C)n3)cc2Cl)cc2cnc(Nc3ccc(C4CCN(C)CC4)cc3)nc21 | < 50 nM | < 50 nM | < 50 nM | 500 to 5000 nM |
| CCn1c(=O)c(-c2ccc(-c3cccnc3C)nc2)cc2cnc(Nc3ccc(C4CCN(C)CC4)cc3)nc21 | > 5000 nM | > 5000 nM | > 5000 nM | ≥ 5000 nM |
| CN(C)CCc1ccc(Nc2ncc3cc(-c4cc(N(C)C)c(-c5cccnc5)cc4Cl)c(=O)n(C)c3n2)cc1 | < 50 nM | 50 to 500 nM | < 50 nM | ≥ 5000 nM |
| Cc1cc(-c2nccnc2C)ccc1-c1cc2cnc(Nc3ccc(C4CCN(C)CC4)cc3)nc2n(C)c1=O | < 50 nM | < 50 nM | 50 to 500 nM | ≥ 5000 nM |
| CCN1CCN(c2ccc(Nc3ncc4cc(-c5ccc(-c6cccnc6)cc5Cl)c(=O)n(CC)c4n3)cc2F)CC1 [drawing 727] | < 50 nM | < 50 nM | < 50 nM | ≥ 5000 nM |
